Laboratory results: patent US20130040944A1, “MGLUR4 ALLOSTERIC POTENTIATORS, COMPOSITIONS, AND METHODS OF TREATING NEUROLOGICAL DYSFUNCTION” (VANDERBILT UNIVERSITY, priority 2009, published 2013)

These molecules were tested against human mGluR4 (Homo sapiens, UniProt Q14833) (assay: potentiation of human mGluR4 in transfected CHO cells, Ca2+-sensitive dye fluorescence, EC20 agonist). Conditions: CHO, read-out: % Glu Max.
Sequence of human mGluR4 (Q14833 33-912): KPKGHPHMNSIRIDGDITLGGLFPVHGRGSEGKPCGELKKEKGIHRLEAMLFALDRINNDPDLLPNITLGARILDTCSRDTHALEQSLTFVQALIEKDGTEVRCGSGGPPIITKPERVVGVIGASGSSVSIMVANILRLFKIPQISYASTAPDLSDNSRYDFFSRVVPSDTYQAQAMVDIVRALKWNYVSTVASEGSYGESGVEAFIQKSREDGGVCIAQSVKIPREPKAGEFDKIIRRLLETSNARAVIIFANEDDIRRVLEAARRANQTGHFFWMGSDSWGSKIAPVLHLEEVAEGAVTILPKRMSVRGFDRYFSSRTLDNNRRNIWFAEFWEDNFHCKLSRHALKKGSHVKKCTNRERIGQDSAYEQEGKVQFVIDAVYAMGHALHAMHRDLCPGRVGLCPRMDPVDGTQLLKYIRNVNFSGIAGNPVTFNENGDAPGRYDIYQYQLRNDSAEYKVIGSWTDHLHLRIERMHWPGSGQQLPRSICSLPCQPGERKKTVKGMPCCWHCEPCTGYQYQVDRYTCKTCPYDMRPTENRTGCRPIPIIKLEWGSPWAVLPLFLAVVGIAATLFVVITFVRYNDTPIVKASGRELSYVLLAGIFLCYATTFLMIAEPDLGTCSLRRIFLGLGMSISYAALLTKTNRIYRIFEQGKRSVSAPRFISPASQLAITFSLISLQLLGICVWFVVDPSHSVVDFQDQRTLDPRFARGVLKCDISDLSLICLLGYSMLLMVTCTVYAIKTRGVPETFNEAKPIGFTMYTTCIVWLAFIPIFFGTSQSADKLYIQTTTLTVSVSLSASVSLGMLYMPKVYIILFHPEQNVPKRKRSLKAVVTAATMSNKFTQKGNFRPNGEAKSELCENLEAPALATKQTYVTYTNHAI

Emax [%]	Structure (SMILES)
152	O=C(Nc1ccn(S(=O)(=O)CCc2ccccc2)c1)c1ccccn1 [Example 40, N-(1-(phenethylsulfonyl)-1H-pyrrol-3-yl)picolinamide]
90	Cc1cccc(C(=O)Nc2ccn(S(=O)(=O)Cc3ccccc3)c2)n1 [Example 43, N-(1-(benzylsulfonyl)-1H-pyrrol-3-yl)-6-methylpicolinamide]
175	O=C(Nc1ccn(S(=O)(=O)Cc2ccccc2)c1)c1nccs1 [Example 44, N-(1-(benzylsulfonyl)-1H-pyrrol-3-yl)thiazole-2-carboxamide]
116	O=C(Nc1ccn(S(=O)(=O)c2ccccc2F)c1)c1ccccn1 [Example 8]
93	O=C(Nc1ccn(S(=O)(=O)c2ccccc2)c1)c1ccccc1 [Example 5, N-(1-(phenylsulfonyl)-1H-pyrrol-3-yl)benzamide]
141	N#Cc1cccc(CS(=O)(=O)n2ccc(NC(=O)c3ccccn3)c2)c1 [Example 26]
59	O=C(Nc1ccn(S(=O)(=O)c2ccccc2)c1)c1ccccn1 [Example 4, N-(1-(phenylsulfonyl)-1H-pyrrol-3-yl)picolinamide]

Same assay, conditions: EC50 (nM), potentiation of EC20 agonist response; Table I

EC50 [nM]	Structure (SMILES)
483	O=C(Nc1ccn(S(=O)(=O)CCc2ccccc2)c1)c1ccccn1 [Example 40, N-(1-(phenethylsulfonyl)-1H-pyrrol-3-yl)picolinamide]
9540	Cc1cccc(C(=O)Nc2ccn(S(=O)(=O)Cc3ccccc3)c2)n1 [Example 43, N-(1-(benzylsulfonyl)-1H-pyrrol-3-yl)-6-methylpicolinamide]
4380	O=C(Nc1ccn(S(=O)(=O)Cc2ccccc2)c1)c1nccs1 [Example 44, N-(1-(benzylsulfonyl)-1H-pyrrol-3-yl)thiazole-2-carboxamide]
174	O=C(Nc1ccn(S(=O)(=O)c2ccccc2F)c1)c1ccccn1 [Example 8]
8170	O=C(Nc1ccn(S(=O)(=O)c2ccccc2)c1)c1ccccc1 [Example 5, N-(1-(phenylsulfonyl)-1H-pyrrol-3-yl)benzamide]
5080	N#Cc1cccc(CS(=O)(=O)n2ccc(NC(=O)c3ccccn3)c2)c1 [Example 26]
280	O=C(Nc1ccn(S(=O)(=O)c2ccccc2)c1)c1ccccn1 [Example 4, N-(1-(phenylsulfonyl)-1H-pyrrol-3-yl)picolinamide]

Same assay, conditions: hEC50, human mGluR4 potentiation; unit inferred

Structure (SMILES)	EC50 [nM]
O=C(Nc1ccn(S(=O)(=O)Cc2ccccc2Cl)c1)c1ncccc1F [Example 65, N-(1-((2-chlorobenzyl)sulfonyl)-1H-pyrrol-3-yl)-3-fluoropicolinamide]	6970
O=C(Nc1ccn(S(=O)(=O)Cc2cccc(F)c2)c1)c1nccs1 [Example 84, N-(1-((3-fluorobenzyl)sulfonyl)-1H-pyrrol-3-yl)thiazole-2-carboxamide]	4800
CC(C)(C)OC(=O)C(c1ccccc1)S(=O)(=O)n1ccc(NC(=O)c2ccccn2)c1 (stereo not drawn) [Example 94, tert-butyl 2-phenyl-2-((3-(picolinamido)-1H-pyrrol-1-yl)sulfonyl)acetate]	14500
O=C(Nc1ccn(S(=O)(=O)c2ccccn2)c1)c1ccccn1 [Example 160, N-(1-(pyridin-2-ylsulfonyl)-1H-pyrrol-3-yl)picolinamide]	1490
O=C(Nc1cn(S(=O)(=O)c2ccc(Cl)cc2)c2ccccc12)c1ccccn1 [Example 111, N-(1-((4-chlorophenyl)sulfonyl)-1H-indol-3-yl)picolinamide]	12200
O=C(Nc1ccn(S(=O)(=O)Cc2ccccc2Cl)c1)c1ccc(Cl)cn1 [Example 86, 5-chloro-N-(1-((2-chlorobenzyl)sulfonyl)-1H-pyrrol-3-yl)picolinamide]	7220
CC(C)(C)c1ccc(S(=O)(=O)n2ccc(NC(=O)c3ccccn3)c2)cc1 [Example 58, N-(1-((4-(tert-butyl)phenyl)sulfonyl)-1H-pyrrol-3-yl)picolinamide]	16800
O=C(Nc1ccn(S(=O)(=O)c2cccc(C(F)(F)F)c2)c1)c1ccccn1 [Example 85, N-(1-((3-(trifluoromethyl)phenyl)sulfonyl)-1H-pyrrol-3-yl)picolinamide]	1620
O=C(Nc1ccn(S(=O)(=O)c2ccc(Cl)cn2)c1)c1ccco1 [Example 167, N-(1-((5-chloropyridin-2-yl)sulfonyl)-1H-pyrrol-3-yl)furan-2-carboxamide]	2860
Cc1cc(S(=O)(=O)n2ccc(NC(=O)c3ccccn3)c2)c(Cl)cc1Cl [Example 108, N-(1-((2,4-dichloro-5-methylphenyl)sulfonyl)-1H-pyrrol-3-yl)picolinamide]	21100
Cc1ccc(S(=O)(=O)n2cc(NC(=O)c3ccccn3)cc2C)cc1 [Example 151, N-(5-methyl-1-tosyl-1H-pyrrol-3-yl)picolinamide]	3810
O=C(Nc1ccn(S(=O)(=O)Cc2cccc(F)c2)c1)c1ccco1 [Example 91, N-(1-((3-fluorobenzyl)sulfonyl)-1H-pyrrol-3-yl)furan-2-carboxamide]	6760
Cc1ccc(S(=O)(=O)c2cc(NC(=O)c3ccccn3)cn2C)cc1 [Example 157, N-(1-methyl-5-tosyl-1H-pyrrol-3-yl)picolinamide]	3680
COc1ccc(S(=O)(=O)n2ccc(NC(=O)c3ccccn3)c2)cc1OC [Example 101, N-(1-((3,4-dimethoxyphenyl)sulfonyl)-1H-pyrrol-3-yl)picolinamide]	5730

Now from value to molecule:

EC50 [nM]	Structure (SMILES)
1270	O=C(Nc1ccn(S(=O)(=O)c2ccc(F)c(F)c2)c1)c1nccs1 [Example 80, N-(1-((3,4-difluorophenyl)sulfonyl)-1H-pyrrol-3-yl)thiazole-2-carboxamide]
228	Cc1ccc(C)c(S(=O)(=O)n2ccc(NC(=O)c3ccccn3)c2)c1 [Example 81, N-(1-((2,5-dimethylphenyl)sulfonyl)-1H-pyrrol-3-yl)picolinamide]
111	Cc1cc(F)ccc1S(=O)(=O)n1ccc(NC(=O)c2ccccn2)c1 [Example 87, N-(1-((4-fluoro-2-methylphenyl)sulfonyl)-1H-pyrrol-3-yl)picolinamide]
45.3	O=C(Nc1ccn(S(=O)(=O)c2ccc3c(c2)OCCO3)c1)c1ccccn1 [Example 156, N-(1-((2,3-dihydrobenzo[b][1,4]dioxin-6-yl)sulfonyl)-1H-pyrrol-3-yl)picolinamide]
281	Cc1ccc(F)c(S(=O)(=O)n2ccc(NC(=O)c3ccccn3)c2)c1 [Example 89, N-(1-((2-fluoro-5-methylphenyl)sulfonyl)-1H-pyrrol-3-yl)picolinamide]
492	O=C(Nc1ccn(S(=O)(=O)Cc2ccccc2Cl)c1)c1cscn1 [Example 62, N-(1-((2-chlorobenzyl)sulfonyl)-1H-pyrrol-3-yl)thiazole-4-carboxamide]
41.1	O=C(Nc1ccn(S(=O)(=O)c2ccc3c(c2)OCCCO3)c1)c1ccccn1 [Example 148, N-(1-((3,4-dihydro-2H-benzo[b][1,4]dioxepin-7-yl)sulfonyl)-1H-pyrrol-3-yl)picolinamide]
125	O=C(Nc1ccn(S(=O)(=O)Cc2ccc(F)cc2Cl)c1)c1ccccn1 [Example 57, N-(1-((2-chloro-4-fluorobenzyl)sulfonyl)-1H-pyrrol-3-yl)picolinamide]
880	Cc1ccc(S(=O)(=O)n2ccc(NC(=O)c3ccccn3)c2)c(C)c1 [Example 74, N-(1-((2,4-dimethylphenyl)sulfonyl)-1H-pyrrol-3-yl)picolinamide]
701	COc1ccc(S(=O)(=O)n2ccc(NC(=O)c3ccco3)c2)cc1 [Example 164, N-(1-((4-methoxyphenyl)sulfonyl)-1H-pyrrol-3-yl)furan-2-carboxamide]
84	O=C(Nc1ccn(S(=O)(=O)c2cccc(Cl)c2F)c1)c1ccccn1 [Example 124, N-(1-((3-chloro-2-fluorophenyl)sulfonyl)-1H-pyrrol-3-yl)picolinamide]
393	Cc1c(F)cccc1S(=O)(=O)n1ccc(NC(=O)c2ccccn2)c1 [Example 115, N-(1-((3-fluoro-2-methylphenyl)sulfonyl)-1H-pyrrol-3-yl)picolinamide]
466	O=C(Nc1ccn(S(=O)(=O)c2ccc(Cl)c(Cl)c2)c1)c1ccccn1 [Example 100, N-(1-((3,4-dichlorophenyl)sulfonyl)-1H-pyrrol-3-yl)picolinamide]
162	O=C(Nc1ccn(S(=O)(=O)c2ccc(Cl)cn2)c1)c1ccccn1 [Example 121, N-(1-((5-chloropyridin-2-yl)sulfonyl)-1H-pyrrol-3-yl)picolinamide]
104	Cc1ccc(S(=O)(=O)n2ccc(NC(=O)c3ccccn3)c2)cc1F [Example 75, N-(1-((3-fluoro-4-methylphenyl)sulfonyl)-1H-pyrrol-3-yl)picolinamide]
110	O=C(Nc1ccn(S(=O)(=O)c2ccc3c(c2)OCO3)c1)c1ccccn1 [Example 133, N-(1-(benzo[d][1,3]dioxol-5-ylsulfonyl)-1H-pyrrol-3-yl)picolinamide]
917	O=C1CCc2ccc(S(=O)(=O)n3ccc(NC(=O)c4ccccn4)c3)cc2N1 [Example 152, N-(1-((2-oxo-1,2,3,4-tetrahydroquinolin-7-yl)sulfonyl)-1H-pyrrol-3-yl)picolinamide]
1070	O=C(Nc1ccn(S(=O)(=O)c2ccc(N3CCOCC3)nc2)c1)c1ccccn1 [Example 144, N-(1-((6-morpholinopyridin-3-yl)sulfonyl)-1H-pyrrol-3-yl)picolinamide]
107	COc1ccc(S(=O)(=O)n2ccc(NC(=O)c3ccccn3)c2)cc1 [Example 129, N-(1-((4-methoxyphenyl)sulfonyl)-1H-pyrrol-3-yl)picolinamide]
396	Cc1cc(S(=O)(=O)n2ccc(NC(=O)c3ccccn3)c2)ccc1F [Example 77, N-(1-((4-fluoro-3-methylphenyl)sulfonyl)-1H-pyrrol-3-yl)picolinamide]
80	O=C(Nc1ccn(S(=O)(=O)c2cccs2)c1)c1ccccn1 [Example 134, N-(1-(thiophen-2-ylsulfonyl)-1H-pyrrol-3-yl)picolinamide]
1050	CC(c1ccccc1Cl)S(=O)(=O)n1ccc(NC(=O)c2ccccn2)c1 (stereo not drawn) [Example 106, N-(1-((1-(2-chlorophenyl)ethyl)sulfonyl)-1H-pyrrol-3-yl)picolinamide]
276	O=C(Nc1ccn(S(=O)(=O)c2cc(F)c(F)c(F)c2)c1)c1ccccn1 [Example 126, N-(1-((3,4,5-trifluorophenyl)sulfonyl)-1H-pyrrol-3-yl)picolinamide]
230	COc1cccc(S(=O)(=O)n2ccc(NC(=O)c3ccccn3)c2)c1 [Example 88, N-(1-((3-methoxyphenyl)sulfonyl)-1H-pyrrol-3-yl)picolinamide]
379	O=C(Nc1ccn(S(=O)(=O)c2ccc(F)c(F)c2)c1)c1ccccn1 [Example 59, N-(1-((3,4-difluorophenyl)sulfonyl)-1H-pyrrol-3-yl)picolinamide]
139	Cc1ccc(S(=O)(=O)n2ccc(NC(=O)c3ccccn3)c2)cc1C [Example 82, N-(1-((3,4-dimethylphenyl)sulfonyl)-1H-pyrrol-3-yl)picolinamide]
